Source: ChEMBL document CHEMBL1201862, “PubChem BioAssay data set” (2004)
Values belong to the compound of their own block, whether it stands above or below them. The source made the active and inactive calls.

Columns and labels:
[1] = target: Sphingosine 1-phosphate receptor 4 (Homo sapiens, UniProt O95977); test: Late-stage fluorescence dose response cell-based assay to identify agonists of the Sphingosine 1-Phosphate Receptor 4 (S1P4): purchased compounds EC50. [Related pubchem assays (depositor defined):AID1509, AID1523, AID1563, AID1686, AID1701, AID1801]; assay type: functional
Sequence of Sphingosine 1-phosphate receptor 4 (O95977 whole entry): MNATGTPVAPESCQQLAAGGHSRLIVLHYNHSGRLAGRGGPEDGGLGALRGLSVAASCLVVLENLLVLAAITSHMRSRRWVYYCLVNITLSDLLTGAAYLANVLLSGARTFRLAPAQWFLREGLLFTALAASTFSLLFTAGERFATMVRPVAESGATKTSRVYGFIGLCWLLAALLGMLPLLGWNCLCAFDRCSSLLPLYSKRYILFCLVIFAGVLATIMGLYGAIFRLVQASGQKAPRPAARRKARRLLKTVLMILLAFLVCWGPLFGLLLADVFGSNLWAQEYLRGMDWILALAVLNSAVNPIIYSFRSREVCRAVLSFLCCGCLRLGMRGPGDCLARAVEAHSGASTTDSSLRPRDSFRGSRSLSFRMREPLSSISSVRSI

[2] = target: T1, Kappa-type opioid receptor (Homo sapiens, UniProt P41145); test: SAR analysis of small molecule agonists of the kappa opioid receptor via a luminescent beta-arrestin assay - Set 3. [Related pubchem assays (depositor defined):AID1777, AID1785, AID1786, AID1966, AID2133, AID2136, AID2284, AID2500]; assay type: functional
T1 sequence (P41145 whole entry): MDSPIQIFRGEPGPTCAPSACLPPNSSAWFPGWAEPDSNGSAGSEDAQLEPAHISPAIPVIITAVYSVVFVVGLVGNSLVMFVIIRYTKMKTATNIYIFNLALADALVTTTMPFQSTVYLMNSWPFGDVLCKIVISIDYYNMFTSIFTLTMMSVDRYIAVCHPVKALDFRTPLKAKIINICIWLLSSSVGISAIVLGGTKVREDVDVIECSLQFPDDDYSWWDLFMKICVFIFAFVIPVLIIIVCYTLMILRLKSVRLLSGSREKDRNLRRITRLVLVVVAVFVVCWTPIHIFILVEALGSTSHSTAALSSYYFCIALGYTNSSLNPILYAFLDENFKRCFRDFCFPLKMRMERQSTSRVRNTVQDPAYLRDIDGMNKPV

[3] = target: Metabotropic glutamate receptor 1 (Rattus norvegicus, UniProt P23385); test: Modulation of the Metabotropic Glutamate Receptor mGluR4: Selectivity at mGluR1. [Related pubchem assays (depositor defined):AID2437, AID2807]; assay type: functional
Sequence of Metabotropic glutamate receptor 1 (P23385 whole entry): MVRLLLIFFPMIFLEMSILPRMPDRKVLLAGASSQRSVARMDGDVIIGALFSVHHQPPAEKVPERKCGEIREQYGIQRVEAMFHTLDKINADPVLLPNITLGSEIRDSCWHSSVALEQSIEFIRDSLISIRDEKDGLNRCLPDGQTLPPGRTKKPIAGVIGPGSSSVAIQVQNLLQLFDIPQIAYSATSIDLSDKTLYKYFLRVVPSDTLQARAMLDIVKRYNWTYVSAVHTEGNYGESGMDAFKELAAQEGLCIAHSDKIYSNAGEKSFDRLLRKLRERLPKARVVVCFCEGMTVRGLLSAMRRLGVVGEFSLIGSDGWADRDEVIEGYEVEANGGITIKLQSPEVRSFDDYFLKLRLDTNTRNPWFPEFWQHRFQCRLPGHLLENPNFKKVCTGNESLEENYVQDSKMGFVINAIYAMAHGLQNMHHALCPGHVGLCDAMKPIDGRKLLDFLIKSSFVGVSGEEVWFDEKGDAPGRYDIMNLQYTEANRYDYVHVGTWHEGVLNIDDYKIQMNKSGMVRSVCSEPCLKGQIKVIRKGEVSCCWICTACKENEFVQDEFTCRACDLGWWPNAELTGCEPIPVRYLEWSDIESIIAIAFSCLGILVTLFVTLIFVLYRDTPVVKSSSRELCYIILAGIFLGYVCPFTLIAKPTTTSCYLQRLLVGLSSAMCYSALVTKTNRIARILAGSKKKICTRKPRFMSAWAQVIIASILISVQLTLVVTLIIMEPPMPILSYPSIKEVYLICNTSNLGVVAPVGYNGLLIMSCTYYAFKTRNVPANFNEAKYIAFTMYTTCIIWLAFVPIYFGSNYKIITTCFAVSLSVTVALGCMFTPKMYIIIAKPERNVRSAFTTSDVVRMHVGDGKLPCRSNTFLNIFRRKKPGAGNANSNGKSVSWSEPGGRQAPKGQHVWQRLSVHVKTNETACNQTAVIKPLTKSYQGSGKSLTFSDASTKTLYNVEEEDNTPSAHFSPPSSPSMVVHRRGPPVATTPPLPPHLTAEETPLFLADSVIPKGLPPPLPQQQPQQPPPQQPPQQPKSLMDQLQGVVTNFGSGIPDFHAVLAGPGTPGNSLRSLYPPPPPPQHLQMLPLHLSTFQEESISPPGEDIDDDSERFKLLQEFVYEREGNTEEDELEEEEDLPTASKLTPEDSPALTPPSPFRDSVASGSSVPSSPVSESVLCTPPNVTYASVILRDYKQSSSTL

[4] = target: Metabotropic glutamate receptor 7 (Rattus norvegicus, UniProt P35400); test: Modulation of the Metabotropic Glutamate Receptor mGluR4: Selectivity at mGluR7. [Related pubchem assays (depositor defined):AID2437, AID2807]; assay type: functional
Sequence of Metabotropic glutamate receptor 7 (P35400 whole entry): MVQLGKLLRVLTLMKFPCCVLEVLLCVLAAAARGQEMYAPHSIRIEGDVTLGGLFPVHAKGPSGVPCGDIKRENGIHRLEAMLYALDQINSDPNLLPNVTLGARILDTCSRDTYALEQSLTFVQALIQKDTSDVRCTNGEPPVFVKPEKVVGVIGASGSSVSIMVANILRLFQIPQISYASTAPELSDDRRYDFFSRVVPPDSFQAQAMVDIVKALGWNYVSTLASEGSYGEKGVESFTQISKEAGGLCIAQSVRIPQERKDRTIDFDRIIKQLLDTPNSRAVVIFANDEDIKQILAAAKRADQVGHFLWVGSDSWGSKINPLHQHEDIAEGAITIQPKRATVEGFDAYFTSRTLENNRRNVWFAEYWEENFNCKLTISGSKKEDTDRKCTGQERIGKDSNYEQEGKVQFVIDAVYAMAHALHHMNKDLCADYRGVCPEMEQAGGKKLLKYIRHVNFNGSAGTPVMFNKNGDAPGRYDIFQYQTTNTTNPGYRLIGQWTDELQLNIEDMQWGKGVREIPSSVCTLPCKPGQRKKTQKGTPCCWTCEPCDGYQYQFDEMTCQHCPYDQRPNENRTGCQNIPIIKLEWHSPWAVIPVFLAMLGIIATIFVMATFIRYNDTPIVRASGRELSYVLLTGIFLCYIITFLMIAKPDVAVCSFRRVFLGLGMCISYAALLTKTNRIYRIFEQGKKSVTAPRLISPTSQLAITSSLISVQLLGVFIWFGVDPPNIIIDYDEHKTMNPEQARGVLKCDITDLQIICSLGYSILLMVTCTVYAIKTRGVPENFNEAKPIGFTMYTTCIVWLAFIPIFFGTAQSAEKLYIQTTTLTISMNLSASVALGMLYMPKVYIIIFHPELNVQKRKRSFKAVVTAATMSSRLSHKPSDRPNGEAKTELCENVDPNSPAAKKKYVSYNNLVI

[5] = target: Metabotropic glutamate receptor 2 (Rattus norvegicus, UniProt P31421); test: mGluR2 modulation, off-target check – cell-based, rat, selectivity assay for mGluR4 modulator project (AID 2188); assay type: functional
Sequence of Metabotropic glutamate receptor 2 (P31421 whole entry): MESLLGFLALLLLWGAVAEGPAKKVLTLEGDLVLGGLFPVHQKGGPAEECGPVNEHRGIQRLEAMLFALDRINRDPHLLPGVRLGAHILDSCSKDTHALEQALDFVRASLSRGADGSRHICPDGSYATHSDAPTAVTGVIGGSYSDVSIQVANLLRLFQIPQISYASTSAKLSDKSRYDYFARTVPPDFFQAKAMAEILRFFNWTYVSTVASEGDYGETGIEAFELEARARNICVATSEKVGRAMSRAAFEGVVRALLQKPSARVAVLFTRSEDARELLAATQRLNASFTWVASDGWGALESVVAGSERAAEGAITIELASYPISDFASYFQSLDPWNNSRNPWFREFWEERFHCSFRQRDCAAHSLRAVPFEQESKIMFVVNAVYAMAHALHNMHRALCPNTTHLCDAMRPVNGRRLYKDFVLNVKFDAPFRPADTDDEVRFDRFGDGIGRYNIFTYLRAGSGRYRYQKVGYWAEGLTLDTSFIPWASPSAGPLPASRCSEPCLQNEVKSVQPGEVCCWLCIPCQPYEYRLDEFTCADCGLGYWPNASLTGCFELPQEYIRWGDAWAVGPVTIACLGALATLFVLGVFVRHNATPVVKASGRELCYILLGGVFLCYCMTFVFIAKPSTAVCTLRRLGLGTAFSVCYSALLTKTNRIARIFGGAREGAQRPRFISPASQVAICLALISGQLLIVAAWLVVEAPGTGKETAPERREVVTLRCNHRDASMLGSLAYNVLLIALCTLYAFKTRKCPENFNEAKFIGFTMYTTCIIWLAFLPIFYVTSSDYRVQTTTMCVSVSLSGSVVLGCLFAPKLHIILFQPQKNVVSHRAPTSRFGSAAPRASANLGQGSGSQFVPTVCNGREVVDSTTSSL

[6] = target: T2, E3 ubiquitin-protein ligase XIAP (Homo sapiens, UniProt P98170); test: Counter Screen using XIAP-Bir3 for Chemical Antagonists of Bir1/2 domains of IAP-family anti-apoptotic proteins. [Related pubchem assays (depositor defined):AID1018, AID1449, AID1514, AID1638, AID1749, AID1750, AID488957, AID488963]
T2 sequence (P98170 whole entry): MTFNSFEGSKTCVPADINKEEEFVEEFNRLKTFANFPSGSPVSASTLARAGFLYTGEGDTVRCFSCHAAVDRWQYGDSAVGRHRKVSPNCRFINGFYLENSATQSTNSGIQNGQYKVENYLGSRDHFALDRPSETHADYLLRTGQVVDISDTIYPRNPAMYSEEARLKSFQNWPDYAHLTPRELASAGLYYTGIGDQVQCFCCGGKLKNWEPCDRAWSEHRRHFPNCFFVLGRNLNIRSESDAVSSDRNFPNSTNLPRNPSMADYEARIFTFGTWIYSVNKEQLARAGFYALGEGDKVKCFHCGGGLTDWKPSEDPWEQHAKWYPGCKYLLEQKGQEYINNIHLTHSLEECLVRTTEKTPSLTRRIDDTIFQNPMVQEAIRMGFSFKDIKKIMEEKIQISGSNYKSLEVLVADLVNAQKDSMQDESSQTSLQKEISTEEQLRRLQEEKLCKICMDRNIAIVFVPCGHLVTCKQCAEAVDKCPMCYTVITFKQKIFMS

[7] = target: T2, E3 ubiquitin-protein ligase XIAP; test: small molecules displacing peptide from XIAP – biochemical, IAP family, fluorescence polarization (AID 1018); assay type: functional
Mu-type opioid receptor = Mu-type opioid receptor (Homo sapiens, UniProt P35372); test: SAR Analysis of Antagonists of the MOR Receptor using an Image-Based Assay - Set 3. [Related pubchem assays (depositor defined):AID1777, AID1785, AID1786, AID1966, AID2133, AID2136, AID2284, AID2285, AID2420]; assay type: functional
Sequence of Mu-type opioid receptor (P35372 whole entry): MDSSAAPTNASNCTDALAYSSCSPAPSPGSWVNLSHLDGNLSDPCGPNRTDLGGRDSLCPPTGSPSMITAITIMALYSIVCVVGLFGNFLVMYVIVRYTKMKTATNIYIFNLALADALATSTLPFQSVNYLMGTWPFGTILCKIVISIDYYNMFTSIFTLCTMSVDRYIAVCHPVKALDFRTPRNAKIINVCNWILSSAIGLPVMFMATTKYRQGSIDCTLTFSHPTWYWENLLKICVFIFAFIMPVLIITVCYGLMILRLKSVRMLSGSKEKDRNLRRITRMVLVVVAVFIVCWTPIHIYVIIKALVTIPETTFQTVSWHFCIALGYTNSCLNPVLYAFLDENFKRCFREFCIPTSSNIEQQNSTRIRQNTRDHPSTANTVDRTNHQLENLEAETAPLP

[8] = target: T1, Kappa-type opioid receptor; test: SAR analysis of small molecule antagonists of the kappa opioid receptor via a luminescent beta-arrestin assay - Set 3. [Related pubchem assays (depositor defined):AID1777, AID1778, AID1785, AID1786, AID1966, AID2133, AID2136, AID2285, AID2495]; assay type: functional
[9] = target: T1, Kappa-type opioid receptor; test: SAR analysis of Antagonists of the Kappa Opioid Receptor (KOR) using an Image-Based Assay - Set 3. [Related pubchem assays (depositor defined):AID1777, AID1785]; assay type: functional
[10] = target: Delta-type opioid receptor (Homo sapiens, UniProt P41143); test: SAR Analysis of Antagonists of the DOR Receptor using an Image-Based Assay - Set 3. [Related pubchem assays (depositor defined):AID1777, AID1785]; assay type: functional;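 further: U2OS cells expressing DOR1 and beta-arrestin GFP stimulated with 100 nM SNC80; imaging of GFP-tagged beta-arrestin moving into spots after receptor activation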
Sequence of Delta-type opioid receptor (P41143 whole entry): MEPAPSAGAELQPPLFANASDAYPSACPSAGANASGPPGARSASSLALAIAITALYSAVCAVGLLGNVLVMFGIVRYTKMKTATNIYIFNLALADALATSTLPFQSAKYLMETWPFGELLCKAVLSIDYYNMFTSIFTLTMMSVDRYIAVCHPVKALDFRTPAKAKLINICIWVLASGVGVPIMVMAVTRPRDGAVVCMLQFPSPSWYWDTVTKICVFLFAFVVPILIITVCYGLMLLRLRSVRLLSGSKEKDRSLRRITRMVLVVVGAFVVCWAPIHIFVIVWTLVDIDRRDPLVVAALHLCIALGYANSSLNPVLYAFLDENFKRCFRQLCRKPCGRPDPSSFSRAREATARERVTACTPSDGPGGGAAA

SMILES: COc1ccc(CNC(=O)C(C)OC(=O)c2c(C)nn(Cc3ccccc3)c2Cl)cc1 (stereo unspecified)
EC50 [1]: > 50 µM (inactive)

SMILES: Clc1ccc(CSc2nnc(-c3ccc(Br)cc3)n2Cc2ccco2)cc1Cl
EC50 [2]: 8 µM (active)

SMILES: CC(C)N(CCNC(=O)c1ccc(CNS(=O)(=O)c2ccc(Br)cc2)cc1)Cc1ccc(Br)cc1
IC50 (Mu-type opioid receptor): > 32 µM (inactive) | IC50 [8]: > 20 µM (inactive) | IC50 [9]: 2.03 µM (active) | IC50 [10]: > 32 µM (inactive)

Second part, the compound after the results:

EC50 [3]: 943 nM (inactive) | Activity EC50 [4]: 313 µM | EC50 [5]: 1.04 µM (inactive)
SMILES: COc1cc(NC(=O)c2ccccn2)ccc1Cl

IC50 [6]: > 100 µM (inactive) | IC50 [7]: > 100 µM (not active)
SMILES: COc1ccc(/C=N/Nc2nc(N3CCCC3)nc(N3CCCC3)n2)cc1
